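Step 1: Grow cells in 96-well plates. Step 2: Expose to compound for 48 hours at 5 concentrations. Step 3: Interpolate endpoints linearly; if unreached, use highest concentration. GI50 = concentration required for 50% inhibition of growth.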 Activity calls are given as the source filed them. Rule as the data show it: active = GI50 up to about 1.1 µM and inactive = higher.
Columns and labels:
Test in all cases: NCI-60 cell line screen, 48 h
[1] = test system: A549
[2] = test system: HCT-116
[3] = test system: HCT-15
[4] = test system: HOP-62
[5] = test system: HOP-92
[6] = test system: HT-29
[7] = test system: KM12
[8] = test system: Malme-3M
[9] = test system: NCI-H226
[10] = test system: NCI-H522
[11] = test system: NCI/ADR-RES
[12] = test system: OVCAR-3
[13] = test system: OVCAR-5
[14] = test system: SF-268
[15] = test system: SK-MEL-5
[16] = test system: SK-OV-3
[17] = test system: SN12C
[18] = test system: TK-10
[19] = test system: UACC-257
[20] = test system: NCI-H23

Row | SMILES | GI50 [1] | GI50 [2] | GI50 [3] | GI50 [4] | GI50 [5] | GI50 [6] | GI50 [7] | GI50 [8] | GI50 [9] | GI50 [10] | GI50 [11] | GI50 [12] | GI50 [13] | GI50 [14] | GI50 [15] | GI50 [16] | GI50 [17] | GI50 [18] | GI50 [19] | GI50 [20]
1 | COC(=O)[C@H](Cc1c[nH]c2ccccc12)NC(=O)c1ccccc1I | > 100 µM (inactive) | 16.3 µM (inactive) | > 100 µM | 30.5 µM (inactive) | 16.9 µM (inactive) | 23.7 µM (inactive) | 41.4 µM (inactive) | 18.7 µM (inactive) | 26.8 µM (inactive) | 15.6 µM (inactive) | 32.1 µM (inactive) | 13.6 µM (inactive) | > 100 µM (inactive) | 19.8 µM (inactive) | 16.1 µM (inactive) | 33.6 µM (inactive) | > 100 µM (inactive) | 24.4 µM (inactive) | 18.8 µM (inactive) | –
2 | CC(C)=CCc1c(O)c(CC=C(C)C)c2oc3c(c(=O)c2c1O)C(C=C(C)C)Oc1cc(O)ccc1-3 (stereo not given) | 5.2 µM (inactive) | 3.74 µM (inactive) | 5.05 µM | 12.5 µM (inactive) | 13.5 µM (inactive) | 10.3 µM (inactive) | 2.94 µM (inactive) | 20.7 µM (inactive) | 20.5 µM (inactive) | 3.9 µM (inactive) | 12.1 µM (inactive) | 4.18 µM (inactive) | 18.5 µM (inactive) | 6.07 µM (inactive) | 8.53 µM (inactive) | 14.7 µM (inactive) | 6.9 µM (inactive) | 4.17 µM (inactive) | 14 µM (inactive) | 4.67 µM (inactive)
3 | CCOC(=O)/C(=C\NC(C)(C)C)c1nc2ccccc2[nH]1 | 29.4 µM (inactive) | 29.5 µM (inactive) | 34.2 µM | 22.4 µM (inactive) | 25.2 µM (inactive) | 17.9 µM (inactive) | 19.9 µM (inactive) | 20.6 µM (inactive) | 22.9 µM (inactive) | 20.2 µM (inactive) | 32 µM (inactive) | 17.5 µM (inactive) | 21.5 µM (inactive) | 23.7 µM (inactive) | 12.9 µM (inactive) | 30.1 µM (inactive) | 28.3 µM (inactive) | 14 µM (inactive) | 18.5 µM (inactive) | 17.7 µM (inactive)
4 | COC(=O)C1=C(C)NC2(C)OC(C)(O)C(C(C)=O)C12C(C)=O (stereo not given) | > 100 µM (inactive) | > 100 µM (inactive) | > 100 µM | > 100 µM (inactive) | 33.2 µM (inactive) | 81.3 µM (inactive) | > 100 µM (inactive) | 23.4 µM (inactive) | 16.5 µM (inactive) | > 100 µM (inactive) | > 100 µM (inactive) | > 100 µM (inactive) | 31.5 µM (inactive) | 28.1 µM (inactive) | > 100 µM (inactive) | 28.5 µM (inactive) | 47.6 µM (inactive) | > 100 µM (inactive) | > 100 µM (inactive) | > 100 µM (inactive)
5 | O=C1CNC(=O)/C(=C/c2c[nH]c3ccccc23)N1 | > 100 µM (inactive) | > 100 µM (inactive) | > 100 µM | > 100 µM (inactive) | > 100 µM (inactive) | > 100 µM (inactive) | > 100 µM (inactive) | > 100 µM (inactive) | > 100 µM (inactive) | 85.3 µM (inactive) | > 100 µM (inactive) | > 100 µM (inactive) | > 100 µM (inactive) | > 100 µM (inactive) | > 100 µM (inactive) | > 100 µM (inactive) | > 100 µM (inactive) | > 100 µM (inactive) | > 100 µM (inactive) | > 100 µM (inactive)
6 | N#Cc1c(-c2ccc(Cl)cc2)cc(-c2ccc(Nc3ccnc4cc(Cl)ccc34)cc2)[nH]c1=O | > 100 µM (inactive) | 44.2 µM (inactive) | > 100 µM | 15.1 µM (inactive) | 18.1 µM (inactive) | > 100 µM (inactive) | > 61 µM (inactive) | > 65.8 µM (inactive) | > 100 µM (inactive) | > 38.6 µM (inactive) | > 100 µM (inactive) | > 100 µM (inactive) | > 61.7 µM (inactive) | 26.2 µM (inactive) | > 100 µM (inactive) | 34.7 µM (inactive) | – | 13.1 µM (inactive) | > 100 µM (inactive) | 24.7 µM (inactive)
7 | COc1ccc(C=O)cc1Oc1ccc(C[C@H]2c3c(cc(OC)c4c3Oc3cc5c(cc3O4)CCN(C)C5=O)CCN2C)cc1 | 36.2 µM (inactive) | 7.05 µM (inactive) | 10.1 µM | 8.32 µM (inactive) | 7.14 µM (inactive) | 7.52 µM (inactive) | 8.91 µM (inactive) | 10.4 µM (inactive) | 8.59 µM (inactive) | 9.44 µM (inactive) | 8.07 µM (inactive) | 8.43 µM (inactive) | 12.1 µM (inactive) | 10.3 µM (inactive) | 7.33 µM (inactive) | 6.73 µM (inactive) | 12.9 µM (inactive) | 11.2 µM (inactive) | 8.04 µM (inactive) | 7.14 µM (inactive)
8 | Oc1cc(Br)cc2cc(Br)cnc12 | 3.29 µM (inactive) | 2.11 µM (inactive) | 1.13 µM | 12.3 µM (inactive) | 13.7 µM (inactive) | 27.5 µM (inactive) | 5.38 µM (inactive) | 2.4 µM (inactive) | 15.3 µM (inactive) | 2.3 µM (inactive) | 2.72 µM (inactive) | 1.58 µM (inactive) | – | 1.1 µM (active) | 2.48 µM (inactive) | 39.2 µM (inactive) | 3.62 µM (inactive) | 43 µM (inactive) | 3.21 µM (inactive) | 4.95 µM (inactive)
9 | C/C(=N\NC(N)=S)c1cccs1.OB(O)c1ccccc1 | > 100 µM (inactive) | > 100 µM (inactive) | > 100 µM | > 100 µM (inactive) | > 100 µM (inactive) | > 100 µM (inactive) | > 100 µM (inactive) | > 100 µM (inactive) | > 100 µM (inactive) | 70.6 µM (inactive) | > 100 µM (inactive) | > 100 µM (inactive) | > 100 µM (inactive) | > 100 µM (inactive) | > 100 µM (inactive) | > 100 µM (inactive) | > 100 µM (inactive) | > 100 µM (inactive) | – | > 100 µM (inactive)
10 | O=C(c1ccccc1)c1ccc2nc3n(c2c1)C(c1c(F)cccc1F)SC3 (stereo not given) | 4.79 µM (inactive) | 3.26 µM (inactive) | 3.16 µM | 8.81 µM (inactive) | 10.9 µM (inactive) | 4.93 µM (inactive) | 2.82 µM (inactive) | 5.68 µM (inactive) | 30.6 µM (inactive) | 2.01 µM (inactive) | 2.99 µM (inactive) | 4.9 µM (inactive) | 5.74 µM (inactive) | 9.66 µM (inactive) | 4.08 µM (inactive) | 4.1 µM (inactive) | 7.69 µM (inactive) | 22.9 µM (inactive) | 18.1 µM (inactive) | 9.4 µM (inactive)
11 | O=C1/C(=C/c2ccc(Cl)cc2)NC(=S)N1CN1CCCCC1 | 34.1 µM (inactive) | 34.4 µM (inactive) | 22.6 µM | 87.9 µM (inactive) | 50.5 µM (inactive) | 15.8 µM (inactive) | 38.7 µM (inactive) | 21.5 µM (inactive) | 32.3 µM (inactive) | 18 µM (inactive) | 19.3 µM (inactive) | 36.7 µM (inactive) | 37.5 µM (inactive) | 20.5 µM (inactive) | 31 µM (inactive) | 63.4 µM (inactive) | 40.6 µM (inactive) | 39 µM (inactive) | – | 37.2 µM (inactive)
12 | CN1[C@@H]2CCCC[C@H]2N(C)P1(=O)C(O)/C=C/c1ccccc1 (stereo not given in full) | > 100 µM (inactive) | > 100 µM (inactive) | > 100 µM | > 100 µM (inactive) | > 100 µM (inactive) | > 100 µM (inactive) | > 100 µM (inactive) | > 100 µM (inactive) | > 100 µM (inactive) | > 100 µM (inactive) | > 100 µM (inactive) | > 100 µM (inactive) | > 100 µM (inactive) | > 100 µM (inactive) | > 100 µM (inactive) | > 100 µM (inactive) | > 100 µM (inactive) | > 100 µM (inactive) | > 100 µM (inactive) | > 100 µM (inactive)
13 | COc1ccc(CNc2nc(NC3CCCCC3)nc(NC3CCCCC3)n2)cc1 | 5.38 µM (inactive) | 2.85 µM (inactive) | 2.13 µM | 8.18 µM (inactive) | 8.75 µM (inactive) | 2.61 µM (inactive) | 1.21 µM (inactive) | 9.25 µM (inactive) | 2.99 µM (inactive) | 4.31 µM (inactive) | 4.24 µM (inactive) | 11.3 µM (inactive) | 4.06 µM (inactive) | 6.46 µM (inactive) | 3.56 µM (inactive) | > 100 µM (inactive) | 6.53 µM (inactive) | 10 µM (inactive) | 13.9 µM (inactive) | 2.4 µM (inactive)
14 | CC(=O)OCC12C(OC(C)=O)C[C@@H](C)C3(CC(c4ccoc4)OC3=O)C1CCC(OC(C)=O)C21CO1 (stereo not given in full) | > 100 µM (inactive) | > 100 µM (inactive) | > 100 µM | > 100 µM (inactive) | > 100 µM (inactive) | > 100 µM (inactive) | > 100 µM (inactive) | > 100 µM (inactive) | > 100 µM (inactive) | > 100 µM (inactive) | > 100 µM (inactive) | > 100 µM (inactive) | > 100 µM (inactive) | > 100 µM (inactive) | > 100 µM (inactive) | > 100 µM (inactive) | > 100 µM (inactive) | > 100 µM (inactive) | > 100 µM (inactive) | > 100 µM (inactive)

From ChEMBL document CHEMBL1201862, “PubChem BioAssay data set” (2004)
